From patent publication US6794396B2, “Substituted pyridines useful for inhibiting cholesteryl ester transfer protein activity” (Pharmacia Corporation, priority 1998, dated 2004)
Like-named read-outs stand apart in the source and are kept apart here.

Legend:
[1] = target: T1, CETP (Homo sapiens, UniProt P11597); assay: CETP activity in vitro: transfer of [3H]CE from HDL donor to LDL acceptor particles; assay type: biochemical
T1 construct: made in house; host or cells: CHO cells (serum-free conditioned medium)
T1 sequence (P11597 18-493): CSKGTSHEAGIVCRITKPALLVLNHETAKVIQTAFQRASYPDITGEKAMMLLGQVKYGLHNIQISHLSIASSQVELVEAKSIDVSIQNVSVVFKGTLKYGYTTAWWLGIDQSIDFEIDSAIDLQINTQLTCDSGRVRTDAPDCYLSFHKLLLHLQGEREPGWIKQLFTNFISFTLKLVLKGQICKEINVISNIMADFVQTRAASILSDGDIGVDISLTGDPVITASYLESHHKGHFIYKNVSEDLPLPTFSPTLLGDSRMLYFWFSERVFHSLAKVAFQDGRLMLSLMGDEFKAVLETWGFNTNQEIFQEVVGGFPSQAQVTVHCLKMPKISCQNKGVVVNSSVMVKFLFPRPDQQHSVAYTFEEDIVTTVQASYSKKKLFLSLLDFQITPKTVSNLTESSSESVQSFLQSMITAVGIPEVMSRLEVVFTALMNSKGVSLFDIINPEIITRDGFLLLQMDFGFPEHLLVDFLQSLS
Procedure, shortened: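 CETP from conditioned medium of CETP-transfected CHO cells incubated with [3H]CE-labelled HDL donor and LDL acceptor, pH 7.4 Tris buffer with NaCl, EDTA and 1% BSA, 2 h at 37 °C. LDL precipitated with dextran sulfate/MgCl2, filtered, and transferred radioactivity counted; IC50 reported.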

[2] = 50% inhibition of [3H]CE transfer from HDL to LDL, 2 hours at 37° C., read-out: IC50(μm)
[3] = IC50(μm), 50% inhibition of [3H]CE transfer from HDL to LDL, 2 hours at 37° C.

| Compound | melting point [°C] | IC50 ([1]; Table 8, read-out: IC50) [µM] | further results |
| --- | --- | --- | --- |
| COC(=O)c1c(OC(=O)N(c2ccccc2)c2ccccc2)cc(C(F)(F)F)nc1C(F)(F)F [Compound 25, Methyl 2,6-Bis(trifluoromethyl)-4-(diphenylaminocarbonyloxy)-3-pyridinecarboxylate] | 114 to 116 | – | IC50 [1, 2]: 40 µM |
| COC(=O)c1c(C(F)F)nc(C(F)(F)F)c(C(=O)Sc2cc(C(C)(C)C)cc(C(C)(C)C)c2)c1CC(C)C [Compound 151, Methyl 2-(Difluoromethyl)-5-{[(3,5-di-t-butylphenyl)thio]carbonyl}-4-(2-methylpropyl)-6-(trifluoromethyl)-3-pyridinecarboxylate] | 102.5 to 108.5 | – | IC50 [1, 3]: 60 µM |
| COC(=O)c1c(C(F)F)nc(C(F)(F)F)c(C(=O)Sc2ccc(C)cc2C)c1CC(C)C [Compound 152, Methyl 2-(Difluoromethyl)-5-{[(2,4-dimethylphenyl)thio]carbonyl}-4-(2-methylpropyl)-6-(trifluoromethyl)-3-pyridinecarboxylate] | 98.5 to 102.5 | – | IC50 [1, 3]: 60 µM |
| COC(=O)c1c(C(F)F)nc(C(F)(F)F)c(C(=O)Sc2ccccc2OC)c1CC(C)C [Compound 153, Methyl 2-(Difluoromethyl)-4-(2-methylpropyl)-5-{[(2-methoxyphenyl)thio]carbonyl}-6-(trifluoromethyl)-3-pyridinecarboxylate] | 100 to 102 | – | IC50 [1, 3]: 100 µM |
| COC(=O)c1c(C(F)F)nc(C(F)(F)F)c(C(=O)Sc2cccc(OC)c2)c1CC(C)C [Compound 154, Methyl 2-(Difluoromethyl)-4-(2-methylpropyl)-5-{[(3-methoxyphenyl)thio]carbonyl}-6-(trifluoromethyl)-3-pyridinecarboxylate] | 87 to 88.5 | – | IC50 [1, 3]: 100 µM |
| COC(=O)c1c(C(F)F)nc(C(F)(F)F)c(C(=O)Sc2ccc(C(C)(C)C)cc2C(C)(C)C)c1CC(C)C [Compound 155, Methyl 2-(Difluoromethyl)-5-{[(2,4-di-t-butylphenyl)thio]carbonyl}-4-(2-methylpropyl)-6-(trifluoromethyl)-3-pyridinecarboxylate] | 115.5 to 120.5 | – | IC50 [1, 2]: 50 µM |
| COC(=O)c1c(C(F)F)nc(C(F)(F)F)c(C(=O)Sc2ccc(C(C)(C)C)cc2)c1CC(C)C [Compound 156, Methyl 5-{[(4-t-Butylphenyl)thio]carbonyl}-2-(difluoromethyl)-4-(2-methylpropyl)-6-(trifluoromethyl)-3-pyridinecarboxylate] | 60.5 to 62.5 | – | IC50 [1, 2]: 100 µM |
| COC(=O)c1c(C(F)F)nc(C(F)(F)F)c(C(=O)Sc2ccc(C)cc2C)c1CC(C)C [Compound 158, Methyl 2-(Difluoromethyl)-5-{[(2,4-dimethyl-phenyl)thio]carbonyl}-4-(2-methylpropyl)-6-(trifluoromethyl)-3-pyridinecarboxylate] | 96 to 99 | – | IC50 [1, 3]: 100 µM |
| COC(=O)c1c(C(F)F)nc(C(F)(F)F)c(C(=O)Sc2ccc(SC)cc2)c1CC(C)C [Compound 159, Methyl 2-(Difluoromethyl)-4-(2-methylpropyl)-5-{[(4-methylthiophenyl)thio]carbonyl}-6-(trifluoromethyl)-3-pyridinecarboxylate] | 112 to 114 | – | IC50 [1, 3]: 80 µM |
| COC(=O)c1c(C(F)F)nc(C(F)(F)F)c(C(=O)Sc2ccc(C(C)C)cc2Cc2ccc(F)cc2)c1CC(C)C [Compound 160, Methyl 2-(Difluoromethyl)-4-(2-methylpropyl)-5-{[(2-(4-fluorobenzyl)-4-isopropylphenyl)thio]carbonyl}-6-(trifluoromethyl)-3-pyridinecarboxylate] | 86.5 to 91 | – | IC50 [1, 2]: 60 µM |
| COC(=O)c1c(C(F)F)nc(C(F)(F)F)c(C(=O)Sc2ccc(F)cc2Cc2ccc(F)cc2)c1CC(C)C [Compound 161, Methyl 2-(Difluoromethyl)-4-(2-methylpropyl)-5-{[(2-(4-fluorobenzyl)-4-fluorophenyl)thio]carbonyl}-6-(trifluoromethyl)-3-pyridinecarboxylate] | 105 to 107 | – | IC50 [1, 2]: 70 µM |
| COC(=O)c1c(C(F)F)nc(C(F)(F)F)c(C(=O)Sc2ccc(Cl)cc2)c1CC(C)C [Compound 162, Methyl 5-{[(4-chlorophenyl)thio]carbonyl}-2-(difluoromethyl)-4-(2-methylpropyl)-6-(trifluoromethyl)-3-pyridinecarboxylate] | 94 to 96.5 | – | IC50 [1, 3]: 50 µM |
| COC(=O)c1c(C(F)F)nc(C(F)(F)F)c(C(=O)Sc2cc(Cl)ccc2Cl)c1CC(C)C [Compound 163, Methyl 5-{[(2,5-Dichlorophenyl)thio]carbonyl}-2-(difluoromethyl)-4-(2-methylpropyl)-6-(trifluoromethyl)-3-pyridinecarboxylate] | 112.5 to 113.5 | – | IC50 [1, 3]: 65 µM |
| COC(=O)c1c(C(F)F)nc(C(F)(F)F)c(C(=O)Sc2c(Cl)cccc2Cl)c1CC(C)C [Compound 164, Methyl 5-{[(2,6-Dichlorophenyl)thio]carbonyl}-2-(difluoromethyl)-4-(2-methylpropyl)-6-(trifluoromethyl)-3-pyridinecarboxylate] | 109.5 to 112.5 | – | IC50 [1, 3]: 50 µM |
| COC(=O)c1c(C(F)F)nc(C(F)(F)F)c(C(=O)Oc2ccccc2[N+](=O)[O-])c1CC(C)C [Compound 166, 3-Methyl 5-(2-Nitrophenyl) 2-(Difluoromethyl)-4-(2-methylpropyl)-6-(trifluoromethyl)-3,5-pyridicarboxylate] | 102.5 to 105.5 | – | IC50 [1, 2]: > 100 µM |
| COC(=O)c1c(C(F)F)nc(C(F)(F)F)c(C(=O)Oc2cc(C(C)(C)C)cc(C(C)(C)C)c2)c1CC(C)C [Compound 167, 3-Methyl 5-(3,5-Di-t-butylphenyl) 2-(Difluoromethyl)-4-(2-methylpropyl)-6-(trifluoromethyl)-3,5-pyridicarboxylate] | 100 to 103.5 | – | IC50 [1, 2]: 60 µM |
| COC(=O)c1c(C(F)F)nc(C(F)(F)F)c(C(=O)Oc2c(C)cc([N+](=O)[O-])cc2C)c1CC(C)C [Compound 176, 3-Methyl 5-(2,6-Dimethyl-4-nitrophenyl) 2-(Difluoromethyl)-4-(2-methylpropyl)-6-(trifluoromethyl)-3,5-pyridicarboxylate] | 96 to 97 | – | – |
| CCOC(=O)c1c(C(F)(F)F)nc(C(F)F)c(C(F)c2ccc(C(C)C)cc2)c1-c1ccccc1 (centres unmarked) [Compound 271] | – | 70 | – |
| CCOC(=O)c1c(C(F)(F)F)nc(C(F)F)c(C(O)c2ccc(Cl)cc2)c1-c1ccccc1 (centres unmarked) [Compound 272] | – | 90 | – |

| Compound | melting point [°C] | IC50 ([1]; Table 8, read-out: IC50) [µM] | further results |
| --- | --- | --- | --- |
| CC(C)c1ccc(Cc2c(C(F)F)nc(C(F)(F)F)c(C=O)c2-c2ccccc2)cc1 [Compound 274] | – | 8 | – |
| CC(C)c1ccc(C(O)c2c(C(F)F)nc(C(F)(F)F)c(CO)c2-c2ccccc2)cc1 (centres unmarked) [Compound 275] | – | > 100 | – |
| OC(c1ccc(C(F)(F)F)cc1)c1c(C(F)F)nc(C(F)(F)F)c(COCc2ccccc2)c1-c1ccc(F)cc1 (centres unmarked) [Compound 276] | – | > 100 | – |
| CCOC(=O)c1c(C(F)(F)F)nc(C(F)F)c(C(O)c2ccc3ccccc3c2)c1-c1ccccc1 (centres unmarked) [Compound 278] | – | 80 | – |
| O=Cc1c(C(F)(F)F)nc(C(F)F)c(Cc2ccc3ccccc3c2)c1-c1ccccc1 [Compound 279] | – | 15 | – |
| OCc1c(C(F)(F)F)nc(C(F)F)c(C(O)c2ccc3ccccc3c2)c1-c1ccccc1 (centres unmarked) [Compound 280] | – | > 100 | – |
| OCc1c(C(F)F)nc(C(F)(F)F)c(COCc2ccccc2)c1-c1ccc(F)cc1 [Compound 281] | – | > 100 | – |
| CC(C)CC(O)c1c(C(F)F)nc(C(F)(F)F)c(C(F)c2ccc(C(F)(F)F)cc2)c1-c1ccc(F)cc1 (centres unmarked) [Compound 283] | – | 38.7 | – |
| C=CC(O)c1c(C(F)F)nc(C(F)(F)F)c(C(=O)c2ccc(C(F)(F)F)cc2)c1-c1ccc(F)cc1 (centres unmarked) [Compound 284] | – | 22.7 | – |
| O=Cc1c(C(F)F)nc(C(F)(F)F)c(C(=O)c2ccc3ccccc3c2)c1-c1ccccc1 [Compound 286] | – | 11.7 | – |
| CC(C)CC(O)c1c(C(F)F)nc(C(F)(F)F)c(C(=O)c2ccc(C(F)(F)F)cc2)c1-c1ccc(F)cc1 (centres unmarked) [Compound 288] | – | 19 | – |
| C=CC(OC(=O)c1ccccc1)c1c(C(F)F)nc(C(F)(F)F)c(C(=O)c2ccc(OCC)cc2)c1-c1ccccc1 (centres unmarked) [Compound 289] | – | 55.3 | – |
| O=C(c1ccc(C(F)(F)F)cc1)c1c(C(F)(F)F)nc(C(F)F)c(CO)c1-c1ccc(F)cc1 [Compound 292] | – | 16.2 | – |
| O=Cc1c(C(F)F)nc(C(F)(F)F)c(C(=O)c2ccc(Cl)cc2)c1-c1ccccc1 [Compound 293] | – | 10.2 | – |
| CCOC(=O)c1c(C(F)(F)F)nc(C(F)F)c(CN2CCCC2)c1-c1ccc(F)cc1 [Compound 294] | – | 40 | – |
| C=CC(O)c1c(C(F)F)nc(C(F)(F)F)c(C(=O)OC)c1CC(C)C (centres unmarked) [Compound 295] | – | – | IC50 ([1]; IC50, Table 8): > 100 µM |
| CCOC(=O)c1c(C(F)(F)F)nc(C(F)F)c(C(O)c2ccc(C(F)(F)F)cc2)c1-c1ccccc1 (centres unmarked) [Compound 296] | – | > 100 | – |
| OCc1c(C(F)(F)F)nc(C(F)F)c(CN2CCCC2)c1-c1ccccc1 [Compound 297] | – | > 100 | – |
